# Laboratory results as given in patent publication US20080194567A1, “Combination Treatment for Enhancing Diuresis” (priority 2005, published 2008).
# How the values were obtained:
# Format in all cases: in vivo, human
# [1] = Experiment 1: case report, levosimendan infusion added to diuretics in a person with congestive heart failure; details: for daily urine volume: 850-1850 ml before start
# Description: Person was admitted to hospital due to congestive heart failure. In cardiac echocardiography they had ejection fraction below 30%, moderate regurgitation of mitral valve and dilative cardiomyopathy. According to coronary angiography invasive procedures such as angioplasty or coronary by-pass surgery were not possible. During the first four days at hospital they received diuretics (furosemide and spironolactone) as well as lisinopril, bisoprolol, antibiotics and allopurinol without any positive response. Their dyspnea worsened and peripheral oedema increased. Levosimendan infusion was added with the dose of 0.05 microg/kg/min and was increased to 0.1 microg/kg/min after two hours, the infusion lasted 24 hours, no bolus infusion was used due to low blood pressure. During the next day patient told that they felt better and dyspnea and periphera oedema decreased. […] The daily urine volumes varied between 850 and 1850 ml before the start of levosimendan, and increased up to 6350 ml on the day they received levosimendan, and were 3800 ml on the day after levosimendan infusion, after that they went down to normal.
# [2] = Experiment 2: case report, levosimendan infusion added to vasodilators and diuretics in a person with dyspnea and lung oedema
# Protocol: Person was admitted to hospital due to severely worsened dyspnea. They suffered from coronary artery disease with no possibilities for re-vascularisation. They had ejection fraction below 35%, markedly elevated end-diastolic pressure and moderate mitral regurgitation. […] They were treated with positive pressure ventilation, vasodilators and diuretics for three days without positive response. Levosimendan fusion with a bolus and continuous infusion rate up to 0.2 microg/kg/min was added. The infusion lasted 24 hours. Before the infusion their daily urinary volumes varied between 2150 and 2730 ml. On the day levosimendan was started their urinary volume was 2650 and increased to 3855, 2890 and 2790 ml during the next consecutive days, and their fluid balance was 8500 ml negative during the four next days after the infusion of levosimendan.
# [3] = Experiment 3: case report, levosimendan infusion added to diuretics in a person with dilating cardiomyopathy
# Protocol: Person was admitted to hospital due to worsened dyspnea. They suffered from idiopathic dilating cardiomyopathy and their left ventricular ejection fraction was 26%. They were treated with diuretics (furosemide and spironolactone) as well as perindopril, bisoprolol and digitalis without positive response for one week. Levosimendan infusion of 0.05 microg/kg/min was added. During the next 24 hours they urinated 3500 ml and during the next five days their weight decreased from 66.5 kg to 62.5 kg, although it had not changed at all before the infusion of levosimendan.
smiles,measurement,setting,value
"C[C@@H]1CC(=O)NN=C1c1ccc(NN=C(C#N)C#N)cc1 [levosimendan, (−)-enantiomer of [[4-(1,4,5,6-tetrahydro-4-methyl-6-oxo-3-pyridazinyl)phenyl]hydrazono]propanedinitrile]",urinary volumes (in words),[1]; after the levosimendan infusion was added to diuretics,increased markedly
same,dyspnea and peripheral oedema,[1]; during the next day after the levosimendan infusion was added,decreased
same,daily urine volume,[1]; on the day after levosimendan infusion,3800 mL
same,daily urine volume,"[1]; on the day they received levosimendan (0.05 then 0.1 microg/kg/min, 24 h infusion) on top of furosemide and spironolactone",6350 mL
same,fluid balance (negative),[2]; during the four next days after the infusion of levosimendan,8500 mL
same,daily urinary volume,"[2]; first consecutive day after levosimendan start, 2150-2730 ml before infusion",3855 mL
same,daily urinary volume,"[2]; on the day levosimendan was started (bolus plus infusion up to 0.2 microg/kg/min, 24 h) on top of diuretics, 2150-2730 ml before infusion",2650 mL
same,daily urinary volume,[2]; second consecutive day after levosimendan start,2890 mL
same,daily urinary volume,[2]; third consecutive day after levosimendan start,2790 mL
same,body weight,"[3]; after the next five days, decreased from 66.5 kg, no change before the infusion",62.5 kg
same,urine volume,[3]; during the next 24 hours after levosimendan 0.05 microg/kg/min was added to furosemide and spironolactone,3500 mL
